Each block holds one compound with its values, some of them ahead of it.
Tests used:
D(2) dopamine receptor = D(2) dopamine receptor (Homo sapiens, UniProt P14416)
Description: Binding affinity towards human dopamine receptor D2 was determined by using [3H]spiperone as radioligand

[1] = Binding affinity towards dopamine receptor D3 was determined; design: species or system Homo sapiens
[2] = Binding affinity towards dopamine receptor D4 was determined; design: species or system Homo sapiens
[3] = Binding affinity towards dopamine receptor D2 was determined; design: species or system Homo sapiens
[4] = Binding affinity of compound towards dopamine receptor D2 was determined; design: species or system Homo sapiens
[5] = target: Sodium-dependent dopamine transporter (Homo sapiens, UniProt Q01959); assay: Ability of compound to inhibit dopamine uptake of receptor was determined; details: read-out: Log 1/Ki (converted)
D(4) dopamine receptor = target: T1, D(4) dopamine receptor (Homo sapiens, UniProt P21917); assay: biochemical
T1 sequence (P21917 whole entry): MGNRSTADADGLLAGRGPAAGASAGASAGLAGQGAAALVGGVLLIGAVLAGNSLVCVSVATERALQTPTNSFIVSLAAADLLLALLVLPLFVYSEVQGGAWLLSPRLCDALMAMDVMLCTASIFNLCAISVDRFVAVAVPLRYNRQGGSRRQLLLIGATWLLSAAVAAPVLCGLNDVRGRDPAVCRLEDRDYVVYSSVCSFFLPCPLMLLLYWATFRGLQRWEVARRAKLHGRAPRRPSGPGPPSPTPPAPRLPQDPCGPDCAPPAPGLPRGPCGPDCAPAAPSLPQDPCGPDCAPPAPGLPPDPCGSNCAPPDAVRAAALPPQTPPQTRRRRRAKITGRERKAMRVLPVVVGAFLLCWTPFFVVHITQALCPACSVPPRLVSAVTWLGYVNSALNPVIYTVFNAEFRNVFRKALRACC
Description: Binding affinity towards human dopamine receptor D4 expressed in CHO cells was determined by using [3H]thymidine as radioligand

[6] = Binding affinity to displace [3H]spiperone from dopamine receptor D2 was determined; design: species or system Homo sapiens
[7] = Binding affinity of compound towards dopamine receptor D3 was determined; design: species or system Homo sapiens

Sequence of D(2) dopamine receptor (P14416 whole entry): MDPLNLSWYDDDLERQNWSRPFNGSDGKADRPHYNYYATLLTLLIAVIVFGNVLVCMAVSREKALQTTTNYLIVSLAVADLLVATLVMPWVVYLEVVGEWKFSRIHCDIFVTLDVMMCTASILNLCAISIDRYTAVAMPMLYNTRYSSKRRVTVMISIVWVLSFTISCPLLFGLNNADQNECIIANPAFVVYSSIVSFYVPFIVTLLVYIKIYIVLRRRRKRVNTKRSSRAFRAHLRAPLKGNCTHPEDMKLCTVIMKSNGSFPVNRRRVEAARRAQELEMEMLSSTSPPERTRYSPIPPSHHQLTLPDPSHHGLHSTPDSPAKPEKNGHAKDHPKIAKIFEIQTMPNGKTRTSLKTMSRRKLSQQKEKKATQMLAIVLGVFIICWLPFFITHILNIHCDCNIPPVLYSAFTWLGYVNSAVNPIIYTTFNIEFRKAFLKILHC
Sequence of Sodium-dependent dopamine transporter (Q01959 whole entry): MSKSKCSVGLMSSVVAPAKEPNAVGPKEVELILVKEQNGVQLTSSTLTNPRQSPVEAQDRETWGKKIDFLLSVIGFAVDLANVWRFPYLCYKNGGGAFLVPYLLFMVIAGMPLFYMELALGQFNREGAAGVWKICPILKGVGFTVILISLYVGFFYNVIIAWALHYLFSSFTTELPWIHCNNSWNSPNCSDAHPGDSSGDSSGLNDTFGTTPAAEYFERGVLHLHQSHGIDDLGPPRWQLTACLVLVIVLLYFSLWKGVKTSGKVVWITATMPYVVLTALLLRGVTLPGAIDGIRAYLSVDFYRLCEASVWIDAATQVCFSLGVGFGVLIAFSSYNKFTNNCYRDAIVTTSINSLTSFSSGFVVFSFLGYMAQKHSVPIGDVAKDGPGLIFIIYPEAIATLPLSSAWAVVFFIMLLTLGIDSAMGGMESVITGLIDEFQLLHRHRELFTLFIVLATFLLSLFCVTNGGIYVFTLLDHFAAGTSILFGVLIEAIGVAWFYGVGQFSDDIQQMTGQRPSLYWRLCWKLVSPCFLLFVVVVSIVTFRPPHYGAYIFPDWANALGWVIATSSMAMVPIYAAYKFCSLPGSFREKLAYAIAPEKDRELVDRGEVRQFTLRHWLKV

- Ki (D(2) dopamine receptor): 1450 nM
SMILES: COc1ccccc1N1CCN(CNC(=O)c2cccc(Cl)c2)CC1

- Log 1/Ki [4]: 5.9
SMILES: Cn1c2c(c(=O)n(C)c1=O)N1CC(Br)=C(NCCN3CCN(c4ccccc4)CC3)NC1N2 (stereo not given)

- Log 1/Ki [4]: 6.49
SMILES: COc1ccccc1N1CCN(CCCNc2nc3nc4c(c(=O)n(C)c(=O)n4C)n3cc2Br)CC1

- Log 1/Ki [4]: 6.58
SMILES: Cn1c(=O)c2c(nc3nc(NCCCN4CCN(c5cccc(Cl)c5)CC4)c(Br)cn32)n(C)c1=O

- Log 1/Ki [4]: 7.03
SMILES: Cn1c(=O)c2c(nc3nc(NCCCN4CCN(c5cccc(Cl)c5)CC4)ccn32)n(C)c1=O

- Log Ki [1]: -8.2
SMILES: O=C(NCCCCN1CCN(c2ccccc2)CC1)c1ccc(Br)cc1

- Log 1/Ki [4]: 5.88
SMILES: COc1ccccc1N1CCN(CCNC2=CCN3c4c(n(C)c(=O)n(C)c4=O)NC3N2)CC1 (stereo not given)

- Log 1/Ki [4]: 6.37
SMILES: Cn1c(=O)c2c(nc3nc(NCCCN4CCN(c5ccccc5)CC4)ccn32)n(C)c1=O

- Log 1/Ki [4]: 5.93
SMILES: COc1ccccc1N1CCN(CCCNc2ccn3c(n2)nc2c3c(=O)n(C)c(=O)n2C)CC1

- Log 1/Ki [4]: 6.38
SMILES: Cn1c(=O)c2c(nc3nc(NCCCN4CCN(c5ccccc5)CC4)c(Br)cn32)n(C)c1=O

- Ki (D(4) dopamine receptor): 15.8 nM
- Ki (D(2) dopamine receptor): 468 nM
SMILES: Cc1cccc(C(=O)NCN2CCN(c3ccccc3Cl)CC2)c1

- Log 1/Ki [4]: 6.65
SMILES: COc1ccccc1N1CCN(CCNC2=C(Br)CN3c4c(n(C)c(=O)n(C)c4=O)NC3N2)CC1 (stereo not given)

- Ki (D(2) dopamine receptor): 363 nM
SMILES: O=C(NCN1CCN(c2ccccc2Cl)CC1)c1cccc(Cl)c1

- Log Ki [1]: -8.5
SMILES: COc1ccc(OC)c(N2CCN(CCCCNC(=O)c3ccc(Br)cc3)CC2)c1

- Log Ki [1]: -9.3
SMILES: COc1ccccc1N1CCN(CCCCNC(=O)c2ccc(Br)cc2)CC1

- Log 1/Ki [4]: 6.74
SMILES: Cn1c2c(c(=O)n(C)c1=O)N1CC=C(NCCN3CCN(c4cccc(Cl)c4)CC3)NC1N2 (stereo not given)

- Log 1/Ki [4]: 6.78
SMILES: Cn1c2c(c(=O)n(C)c1=O)N1CC(Br)=C(NCCN3CCN(c4cccc(Cl)c4)CC3)NC1N2 (stereo not given)

- Ki (D(4) dopamine receptor): 5.25 nM
- Ki (D(2) dopamine receptor): 2290 nM
SMILES: N#Cc1ccccc1N1CCN(CNC(=O)c2cccc(Cl)c2)CC1

The remaining lines, values behind:

SMILES: CN(CCCC(=O)c1ccc(F)cc1)CCC(O)c1ccc(Cl)cc1 (stereo not given)
- Log 1/Ki [1]: 6.79
- Log 1/Ki [2]: 6.72
- Log 1/Ki [3]: 7.58

SMILES: COc1ccccc1N1CCN(CCCCNC(=O)c2ccc(-c3ccc(S(C)(=O)=O)cc3)cc2)CC1
- Log Ki [1]: -9.5

SMILES: Fc1ccc(C(OC2CC3CCC(C2)N3CCOCc2cccs2)c2ccc(F)cc2)cc1 (stereo not given)
- Ki [5]: 18.6 nM

SMILES: COc1ccccc1N1CCN(CNC(=O)c2ccc(C)cc2)CC1
- Ki (D(4) dopamine receptor): 3.39 nM
- Ki (D(2) dopamine receptor): 174 nM

SMILES: CCN1CCCC1CNC(=O)c1cc(Br)cc(OC)c1OC (stereo not given)
- Log 1/Ki [6]: 9.12

SMILES: O=C(CCN1[C@@H]2CC[C@H]1C[C@@H](OC(c1ccc(F)cc1)c1ccc(F)cc1)C2)Nc1ccccc1
- Ki [5]: 5.01 nM

SMILES: O=C(NCCN1C2CCC1CC(OC(c1ccc(F)cc1)c1ccc(F)cc1)C2)c1cccnc1 (stereo not given)
- Ki [5]: 14.1 nM

SMILES: O=C(CCCN1CCC(CO)(c2ccc(Cl)cc2)C1)c1ccc(F)cc1 (stereo not given)
- Log 1/Ki [1]: 6.78
- Log 1/Ki [2]: 7.62
- Log 1/Ki [3]: 7.36

SMILES: COc1ccccc1N1CCN(CNC(=O)c2ccc(Cl)cc2)CC1
- Ki (D(4) dopamine receptor): 3.47 nM
- Ki (D(2) dopamine receptor): 269 nM

SMILES: Cc1ccc(C(=O)NCN2CCN(c3ccccc3C#N)CC2)cc1
- Ki (D(4) dopamine receptor): 1.2 nM
- Ki (D(2) dopamine receptor): 380 nM

SMILES: COc1ccccc1N1CCN(CCCCNC(=O)c2ccc(-c3ccc(N)cc3)cc2)CC1
- Log Ki [1]: -9.7

SMILES: CCCc1cc(OC)c(OC)c(C(=O)NCC2CCCN2CC)c1O (stereo not given)
- Log 1/Ki [6]: 8.89

SMILES: N#Cc1ccccc1N1CCN(CNC(=O)c2ccc(Cl)cc2)CC1
- Ki (D(4) dopamine receptor): 3.89 nM
- Ki (D(2) dopamine receptor): 603 nM

SMILES: OCCOCCN1C2CCC1CC(OC(c1ccc(F)cc1)c1ccc(F)cc1)C2 (stereo not given)
- Ki [5]: 49 nM

SMILES: O=C(CCCN1CCC(CCO)(c2ccc(Cl)cc2)C1)c1ccc(F)cc1 (stereo not given)
- Log 1/Ki [1]: 7.49
- Log 1/Ki [2]: 6.71
- Log 1/Ki [3]: 7.64

SMILES: COc1ccccc1N1CCN(CNC(=O)c2ccccc2)CC1
- Ki (D(4) dopamine receptor): 30.9 nM
- Ki (D(2) dopamine receptor): 2450 nM

SMILES: COc1ccccc1N1CCN(CNC(=O)c2cccc(C)c2)CC1
- Ki (D(4) dopamine receptor): 12.9 nM
- Ki (D(2) dopamine receptor): 2450 nM

SMILES: O=C(NCN1CCN(c2ccccc2Cl)CC1)c1ccccc1
- Ki (D(4) dopamine receptor): 107 nM
- Ki (D(2) dopamine receptor): 178 nM

SMILES: O=C(CCCN1CCC(CO)(c2ccc(Cl)cc2)CC1)c1ccc(F)cc1
- Log 1/Ki [1]: 6.96
- Log 1/Ki [2]: 7.11
- Log 1/Ki [3]: 7.81

SMILES: Fc1ccc(C(OC2CC3CCC(C2)N3CCNCc2ccccc2)c2ccc(F)cc2)cc1 (stereo not given)
- Ki [5]: 8.13 nM

SMILES: Fc1ccc(C(OC2CC3CCC(C2)N3CCOCc2ccccc2)c2ccc(F)cc2)cc1 (stereo not given)
- Ki [5]: 22.4 nM

SMILES: CCN1CCCC1CNC(=O)c1c(O)c(CCCF)cc(OC)c1OC (stereo not given)
- Log 1/Ki [6]: 9.1

SMILES: CN1CCN(C2=Cn3c(/C=N/O)ccc3Sc3ccccc32)CC1
- Log 1/Ki [7]: 5.37

SMILES: Fc1ccc(C(OC2CC3CCC(C2)N3CCOCCN2CCOCC2)c2ccc(F)cc2)cc1 (stereo not given)
- Ki [5]: 661 nM

SMILES: CCCc1cc(OC)c(OC)c(C(=O)NCC2CCCN2CC)c1 (stereo not given)
- Log 1/Ki [6]: 8.16

SMILES: CCN1CCCC1CNC(=O)c1cccc(OC)c1OC (stereo not given)
- Log 1/Ki [6]: 7.18

SMILES: N#Cc1ccccc1N1CCN(CNC(=O)c2ccccc2)CC1
- Ki (D(4) dopamine receptor): 24 nM
- Ki (D(2) dopamine receptor): 3020 nM

SMILES: NCCN1[C@@H]2CC[C@H]1C[C@@H](OC(c1ccc(F)cc1)c1ccc(F)cc1)C2
- Ki [5]: 25.7 nM

SMILES: O=C(NCN1CCN(c2ccccc2Cl)CC1)c1ccc(Cl)cc1
- Ki (D(4) dopamine receptor): 8.32 nM
- Ki (D(2) dopamine receptor): 66.1 nM

SMILES: Cc1ccc(CC2(O)CCN(CCCC(=O)c3ccc(F)cc3)CC2)cc1
- Log 1/Ki [1]: 8.05
- Log 1/Ki [2]: 7.23
- Log 1/Ki [3]: 8.1

SMILES: COc1ccccc1N1CCN(CCCCNC(=O)c2ccc(-c3ccc(C(C)=O)cc3)cc2)CC1
- Log Ki [1]: -9.5

SMILES: O=C(NCCN1C2CCC1CC(OC(c1ccc(F)cc1)c1ccc(F)cc1)C2)c1ccccc1 (stereo not given)
- Ki [5]: 6.46 nM

SMILES: Fc1ccc(C(OC2CC3CCC(C2)N3CCCOc2ccccc2)c2ccc(F)cc2)cc1 (stereo not given)
- Ki [5]: 229 nM

SMILES: O=C(CCCN1CCC(c2ccc(Cl)cc2)CC1)c1ccc(F)cc1
- Log 1/Ki [1]: 7.34
- Log 1/Ki [2]: 7.59
- Log 1/Ki [3]: 7.81

SMILES: CCN1CCCC1CNC(=O)c1cc(CCCF)cc(OC)c1OC (stereo not given)
- Log 1/Ki [6]: 8.36

SMILES: CCN1CCCC1CNC(=O)c1c(O)c(CCF)cc(OC)c1OC (stereo not given)
- Log 1/Ki [6]: 9.11

SMILES: Cc1ccc(C(=O)NCN2CCN(c3ccccc3Cl)CC2)cc1
- Ki (D(4) dopamine receptor): 219 nM
- Ki (D(2) dopamine receptor): 49 nM

SMILES: CCN1CCCC1CNC(=O)c1cc(CCF)cc(OC)c1OC (stereo not given)
- Log 1/Ki [6]: 8.28

— ChEMBL document CHEMBL1143544, “The role of QSAR in dopamine interactions” (Bioorg Med Chem Lett, 2005)
